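Where inhibition never reached the appropriate level, the endpoint shown equals the highest concentration tested. Otherwise, values were interpolated linearly from a five-concentration, 48-hour dose response in 96-well plates. GI50: concentration for 50% inhibition of growth. TGI is the concentration that stops growth completely.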
Columns and labels:
Assay in all cases: inhibition of tumour cell growth, NCI panel, 48 h
[1] = test system: 786-0 renal
[2] = test system: UO-31 renal
[3] = test system: MALME-3M melanoma
[4] = test system: T-47D breast
[5] = test system: NCI-H522 lung
[6] = test system: UACC-257 melanoma
[7] = test system: SF-539 CNS
[8] = test system: MOLT-4 leukemia
[9] = test system: MDA-MB-435
[10] = test system: SNB-19 CNS
[11] = test system: HOP-92 NSCLC
[12] = test system: HCT-15 colon
[13] = test system: TK-10 renal
[14] = test system: OVCAR-5 ovarian
[15] = test system: HCT-116 colon
[16] = test system: SR leukemia
[17] = test system: RPMI-8226 leukemia
[18] = test system: LOX IMVI melanoma
[19] = test system: IGROV1 ovarian
[20] = test system: SF-268 CNS
[21] = test system: NCI-H226 lung
[22] = test system: K-562 leukemia
[23] = test system: MCF7 breast
[24] = test system: PC-3 prostate
[25] = test system: A498 renal
[26] = test system: SK-MEL-2 melanoma
[27] = test system: SNB-75 CNS
[28] = test system: OVCAR-8 ovarian
[29] = test system: KM12 colon
[30] = test system: BT-549 breast
[31] = test system: ACHN renal
[32] = test system: M14 melanoma
[33] = test system: NCI/ADR-RES ovarian
[34] = test system: NCI-H460 lung
[35] = test system: SW-620 colon
[36] = test system: OVCAR-4 ovarian
[37] = test system: HT29 colon
[38] = test system: SF-295 CNS
[39] = test system: SK-MEL-5 melanoma
[40] = test system: EKVX NSCLC
[41] = test system: MDA-MB-231 breast
[42] = test system: A549 NSCLC
[43] = test system: SK-MEL-28 melanoma
[44] = test system: HS 578T breast
[45] = test system: HL-60(TB) leukemia
[46] = test system: OVCAR-3 ovarian
[47] = test system: DU-145 prostate
[48] = test system: HCC-2998 colon
[49] = test system: RXF 393 renal
[50] = test system: CCRF-CEM leukemia
[51] = test system: SN12C renal
[52] = test system: SK-OV-3 ovarian
[53] = test system: U251 CNS
[54] = test system: UACC-62 melanoma
[55] = test system: NCI-H23 lung
[56] = test system: COLO 205 colon
[57] = test system: HOP-62 NSCLC
[58] = test system: CAKI-1 renal

Compound: O=C(C1CC1)N1CC[C@@H](Cc2n[nH]c(=O)n2-c2ccc(-c3ccc4occc4c3)cc2)C1
- GI50 [1]: 12.3 µM
- TGI [1]: > 100 µM
- GI50 [2]: 1.91 µM
- TGI [2]: 65.4 µM
- GI50 [3]: 22.4 µM
- TGI [3]: > 87.8 µM
- GI50 [4]: 18 µM
- TGI [4]: > 96.5 µM
- GI50 [5]: 20.9 µM
- TGI [5]: > 92 µM
- GI50 [6]: 29 µM
- TGI [6]: > 96.6 µM
- GI50 [7]: 8.16 µM
- TGI [7]: > 100 µM
- GI50 [8]: 6.09 µM
- TGI [8]: > 88.5 µM
- GI50 [9]: 14.8 µM
- TGI [9]: > 87.6 µM
- GI50 [10]: 17 µM
- TGI [10]: > 100 µM
- GI50 [11]: 24.4 µM
- TGI [11]: > 100 µM
- GI50 [12]: 11.2 µM
- TGI [12]: > 100 µM
- GI50 [13]: 28.3 µM
- TGI [13]: > 100 µM
- GI50 [14]: 42.5 µM
- TGI [14]: > 100 µM
- GI50 [15]: 14.3 µM
- TGI [15]: 84 µM
- GI50 [16]: 23.9 µM
- TGI [16]: > 100 µM
- GI50 [17]: 2.82 µM
- TGI [17]: > 75.4 µM
- GI50 [18]: 10.3 µM
- TGI [18]: 51.3 µM
- GI50 [19]: 21.2 µM
- TGI [19]: > 100 µM
- GI50 [20]: 12.4 µM
- TGI [20]: > 100 µM
- GI50 [21]: 19.6 µM
- TGI [21]: > 100 µM
- GI50 [22]: 8.18 µM
- TGI [22]: > 100 µM
- GI50 [23]: 1.62 µM
- TGI [23]: > 100 µM
- GI50 [24]: 23.2 µM
- TGI [24]: > 100 µM
- GI50 [25]: 15 µM
- TGI [25]: > 85.4 µM
- GI50 [26]: 21.5 µM
- TGI [26]: 70.3 µM
- GI50 [27]: 13.7 µM
- TGI [27]: > 94.1 µM
- GI50 [28]: 25.3 µM
- TGI [28]: > 100 µM
- GI50 [29]: 17.6 µM
- TGI [29]: > 100 µM
- GI50 [30]: 1.65 µM
- TGI [30]: 48.7 µM
- GI50 [31]: 11.8 µM
- TGI [31]: 54.8 µM
- GI50 [32]: 17.2 µM
- TGI [32]: > 100 µM
- GI50 [33]: 30.8 µM
- TGI [33]: > 100 µM
- GI50 [34]: 3.2 µM
- TGI [34]: > 100 µM
- GI50 [35]: 27.6 µM
- TGI [35]: > 100 µM
- GI50 [36]: 9.02 µM
- TGI [36]: > 94.5 µM
- GI50 [37]: 7.51 µM
- TGI [37]: > 81.1 µM
- GI50 [38]: 11.5 µM
- TGI [38]: > 100 µM
- GI50 [39]: 12 µM
- TGI [39]: 33.6 µM
- GI50 [40]: 12.6 µM
- TGI [40]: > 100 µM
- GI50 [41]: 20.4 µM
- TGI [41]: > 100 µM
- GI50 [42]: 16.9 µM
- TGI [42]: > 100 µM
- GI50 [43]: 32 µM
- TGI [43]: > 100 µM
- GI50 [44]: 21.3 µM
- TGI [44]: > 100 µM
- GI50 [45]: 0.131 µM
- TGI [45]: > 44.4 µM
- GI50 [46]: 15.8 µM
- TGI [46]: > 73.7 µM
- GI50 [47]: 23.4 µM
- TGI [47]: > 100 µM
- GI50 [48]: 33.9 µM
- TGI [48]: > 100 µM
- GI50 [49]: 24.2 µM
- TGI [49]: > 100 µM
- GI50 [50]: 15.6 µM
- TGI [50]: > 100 µM
- GI50 [51]: 23.2 µM
- TGI [51]: > 100 µM
- GI50 [52]: 25.4 µM
- TGI [52]: > 100 µM
- GI50 [53]: 25.4 µM
- TGI [53]: > 100 µM
- GI50 [54]: 21.1 µM
- TGI [54]: > 100 µM
- GI50 [55]: 39.1 µM
- TGI [55]: > 100 µM
- GI50 [56]: 15 µM
- TGI [56]: 72.5 µM
- GI50 [57]: 23.4 µM
- TGI [57]: > 100 µM

Compound: Nc1c(C(=O)c2cccc(-c3ccncc3)c2)cnn1-c1ccc(F)cc1
- GI50 [1]: > 25 µM
- TGI [1]: > 25 µM
- GI50 [2]: > 25 µM
- TGI [2]: > 25 µM
- GI50 [3]: > 25 µM
- TGI [3]: > 25 µM
- GI50 [4]: 9.94 µM
- TGI [4]: > 25 µM
- GI50 [58]: > 25 µM
- TGI [58]: > 25 µM
- GI50 [5]: 15.4 µM
- TGI [5]: > 25 µM
- GI50 [6]: > 25 µM
- TGI [6]: > 25 µM
- GI50 [7]: > 25 µM
- TGI [7]: > 25 µM
- GI50 [8]: > 25 µM
- TGI [8]: > 25 µM
- GI50 [9]: > 25 µM
- TGI [9]: > 25 µM
- GI50 [10]: > 25 µM
- TGI [10]: > 25 µM
- GI50 [11]: > 25 µM
- TGI [11]: > 25 µM
- GI50 [12]: > 25 µM
- TGI [12]: > 25 µM
- GI50 [13]: > 25 µM
- TGI [13]: > 25 µM
- GI50 [14]: > 25 µM
- TGI [14]: > 25 µM
- GI50 [15]: > 25 µM
- TGI [15]: > 25 µM
- GI50 [16]: > 25 µM
- TGI [16]: > 25 µM
- GI50 [17]: > 15.2 µM
- TGI [17]: > 25 µM
- GI50 [18]: > 25 µM
- TGI [18]: > 25 µM
- GI50 [19]: > 25 µM
- TGI [19]: > 25 µM
- GI50 [20]: > 25 µM
- TGI [20]: > 25 µM
- GI50 [21]: > 25 µM
- TGI [21]: > 25 µM
- GI50 [22]: > 25 µM
- TGI [22]: > 25 µM
- GI50 [23]: > 25 µM
- TGI [23]: > 25 µM
- GI50 [24]: > 25 µM
- TGI [24]: > 25 µM
- GI50 [25]: > 25 µM
- TGI [25]: > 25 µM
- GI50 [26]: > 25 µM
- TGI [26]: > 25 µM
- GI50 [27]: > 25 µM
- TGI [27]: > 25 µM
- GI50 [28]: > 25 µM
- TGI [28]: > 25 µM
- GI50 [29]: > 25 µM
- TGI [29]: > 25 µM
- GI50 [30]: > 25 µM
- TGI [30]: > 25 µM
- GI50 [31]: > 25 µM
- TGI [31]: > 25 µM
- GI50 [32]: > 25 µM
- TGI [32]: > 25 µM
- GI50 [33]: > 25 µM
- TGI [33]: > 25 µM
- GI50 [34]: > 25 µM
- TGI [34]: > 25 µM
- GI50 [35]: > 25 µM
- TGI [35]: > 25 µM
- GI50 [36]: > 25 µM
- TGI [36]: > 25 µM
- GI50 [37]: > 25 µM
- TGI [37]: > 25 µM
- GI50 [38]: > 25 µM
- TGI [38]: > 25 µM
- GI50 [39]: 5.69 µM
- TGI [39]: > 25 µM
- GI50 [41]: > 25 µM
- TGI [41]: > 25 µM
- GI50 [42]: > 25 µM
- TGI [42]: > 25 µM
- GI50 [43]: > 25 µM
- TGI [43]: > 25 µM
- GI50 [44]: > 25 µM
- TGI [44]: > 25 µM
- GI50 [45]: > 5.67 µM
- TGI [45]: > 25 µM
- GI50 [46]: > 25 µM
- TGI [46]: > 25 µM
- GI50 [47]: > 25 µM
- TGI [47]: > 25 µM
- GI50 [48]: > 25 µM
- TGI [48]: > 25 µM
- GI50 [49]: > 25 µM
- TGI [49]: > 25 µM
- GI50 [50]: > 25 µM
- TGI [50]: > 25 µM
- GI50 [51]: > 25 µM
- TGI [51]: > 25 µM
- GI50 [52]: > 25 µM
- TGI [52]: > 25 µM
- GI50 [53]: > 25 µM
- TGI [53]: > 25 µM
- GI50 [54]: > 25 µM
- TGI [54]: > 25 µM
- GI50 [55]: > 25 µM
- TGI [55]: > 25 µM
- GI50 [56]: > 25 µM
- TGI [56]: > 25 µM
- GI50 [57]: > 23.3 µM
- TGI [57]: > 25 µM
